Results: patent EP3807270B1, “NOVEL HETEROARYL HETEROCYCLYL COMPOUNDS FOR THE TREATMENT OF AUTOIMMUNE DISEASE” (F. Hoffmann-La Roche AG, priority 2018, dated 2019)

Target: T1, hTLR9 (Homo sapiens, UniProt Q9NR96)
T1 sequence (Q9NR96 26-1032): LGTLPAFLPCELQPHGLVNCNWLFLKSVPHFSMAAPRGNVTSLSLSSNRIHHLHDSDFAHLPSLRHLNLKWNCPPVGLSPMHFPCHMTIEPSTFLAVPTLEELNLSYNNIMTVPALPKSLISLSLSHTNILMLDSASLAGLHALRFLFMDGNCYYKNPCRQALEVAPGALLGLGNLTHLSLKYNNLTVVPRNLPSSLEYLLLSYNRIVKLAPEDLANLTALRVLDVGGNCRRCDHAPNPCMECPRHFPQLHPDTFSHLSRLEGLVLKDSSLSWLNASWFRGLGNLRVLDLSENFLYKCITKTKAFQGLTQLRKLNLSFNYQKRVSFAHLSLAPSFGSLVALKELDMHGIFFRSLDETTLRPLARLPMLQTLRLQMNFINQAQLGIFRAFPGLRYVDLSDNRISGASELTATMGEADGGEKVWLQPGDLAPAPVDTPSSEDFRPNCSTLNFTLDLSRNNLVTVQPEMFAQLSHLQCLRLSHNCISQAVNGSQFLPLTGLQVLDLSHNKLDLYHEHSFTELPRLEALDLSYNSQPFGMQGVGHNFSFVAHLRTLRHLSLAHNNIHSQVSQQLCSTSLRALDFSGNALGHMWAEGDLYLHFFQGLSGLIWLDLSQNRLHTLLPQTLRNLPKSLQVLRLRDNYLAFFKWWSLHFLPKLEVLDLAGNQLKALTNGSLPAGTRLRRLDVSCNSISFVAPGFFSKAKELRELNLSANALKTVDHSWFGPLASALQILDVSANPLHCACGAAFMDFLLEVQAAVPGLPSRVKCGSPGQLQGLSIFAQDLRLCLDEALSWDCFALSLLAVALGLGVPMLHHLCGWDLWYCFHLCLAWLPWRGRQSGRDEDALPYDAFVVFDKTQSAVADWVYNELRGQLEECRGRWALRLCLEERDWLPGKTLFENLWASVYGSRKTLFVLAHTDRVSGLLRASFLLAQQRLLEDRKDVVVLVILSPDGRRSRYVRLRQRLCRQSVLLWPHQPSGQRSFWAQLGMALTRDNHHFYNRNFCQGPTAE
Experiment: HEK293-Blue-hTLR-9 cells assay (SEAP reporter, ODN2006 stimulation)
Format: cell-based
Design: host or cells: HEK293 (HEK-Blue)
Settings: HEK293-Blue-hTLR9 cells, ODN2006, 20 hrs; read-out: HEK/hTLR9 IC50
Source text: A stable HEK293-Blue-hTLR-9 cell line was purchased from InvivoGen (Cat.#: hkb-htlr9, San Diego, California, USA). These cells were originally designed for studying the stimulation of human TLR9 by monitoring the activation of NF-κB. A SEAP (secreted embryonic alkaline phosphatase) reporter gene was placed under the control of the IFN-β minimal promoter fused to five NF-κB and AP-1-binding sites. The SEAP was induced by activating NF-κB and AP-1 via stimulating HEK-Blue hTLR9 cells with TLR9 ligands. Therefore, the reporter expression was declined by TLR9 antagonist under the stimulation of a ligand, such as ODN2006 (Cat.#: tlrl-2006-1, Invivogen, San Diego, California, USA), for incubation of 20 hrs. The cell culture supernatant SEAP reporter activity was determined using QUANTI-Blue™ kit (Cat.#: rep-qb 1, Invivogen, San Diego, California, USA) at a wavelength of 640 nm, a detection medium that turns purple or blue in the presence of alkaline phosphatase.
HEK293-Blue-hTLR9 cells were incubated at a density of 250,000-450,000 cells/mL in a volume of 170 µL in a 96-well plate in Dulbecco's Modified Eagle's medium (DMEM) containing 4.5 g/L glucose, 50 U/mL penicillin, […], […], 2 mM L-glutamine, 10% (v/v) heat-inactivated fetal bovine serum with addition of 20 µL test compound in a serial dilution in the presence of final DMSO at 1% and 10 µL of 20uM ODN2006 in above DMEM, perform incubation under 37 °C in a CO2 incubator for 20 hrs. Then 20 µL of the supernatant from each well was incubated with 180 µL Quanti-blue substrate solution at 37 °C for 2 hrs and the absorbance was read at 620-655 nm using a spectrophotometer. The signaling pathway that TLR9 activation leads to downstream NF-κB activation has been widely accepted, and therefore similar reporter assay was modified for evaluating TLR9 antagonist.

SMILES | IC50 [nM]
C[C@@H]1CN(c2ccc(C#N)c3ncccc23)C[C@H](CN2CCN(c3ccc4c(n3)CCNC4)C[C@H](O)C2)O1 (single isomer, unassigned) [Example 35A] | 147
C[C@@H]1CN(c2ccc(C#N)c3ncccc23)C[C@H](CN2CCN(c3ccc4c(n3)CCNC4)C[C@@H](O)C2)O1 (single isomer, unassigned) [Example 35B] | 117
C[C@@H]1CN(c2ccc(C#N)c3ncccc23)C[C@H](CN2C[C@H]3CN(c4ccc5c(n4)CCNC5)CC[C@@H]32)O1 (single isomer, unassigned) [Example 54] | < 32
C[C@@H]1CN(c2ccc(C#N)c3ncccc23)C[C@H](CN2C[C@H]3CN(c4ccc5c(n4)CCNC5)CC[C@H]32)O1 (single isomer, unassigned) [Example 55] | < 32
C[C@@H]1CN(c2ccc(C#N)c3ncccc23)C[C@H](CN2CCN(c3ccc4c(n3)CN[C@@H]4C)CC2)O1 (single isomer, unassigned) [Example 64] | 92
C[C@@H]1CN(c2ccc(C#N)c3ncccc23)C[C@H](CN2CCN(c3ccc4c(n3)[C@@H](C)NC4)CC2)O1 (single isomer, unassigned) [Example 65] | 81
C[C@@H]1CN(c2ccc(C#N)c3ncccc23)C[C@H](CN2CCN(c3ccc4c(n3)[C@H](C)NC4)CC2)O1 (single isomer, unassigned) [Example 66] | 112
C[C@@H]1CN(c2ccc(C#N)c3ncccc23)C[C@H](CN2CCN(c3cnc4c(c3)CN[C@@H]4C)CC2)O1 (single isomer, unassigned) [Example 68] | 84
C[C@@H]1CN(c2ccc(C#N)c3ncccc23)C[C@H](CN2CCN(c3cc4c(cn3)CN[C@@H](C)C4)CC2)O1 (single isomer, unassigned) [Example 71] | 91
C[C@@H]1CN(c2ccc(C#N)c3ncccc23)C[C@H](CN2CCN(c3cc4c(cn3)[C@H](C)NCC4)CC2)O1 (single isomer, unassigned) [Example 72] | 66
C[C@@H]1CN(c2ccc(C#N)c3ncccc23)C[C@H](CN2CCN(c3cc4c(cn3)[C@@H](C)NCC4)CC2)O1 (single isomer, unassigned) [Example 73] | 82
C[C@@H]1CN(c2ccc(C#N)c3ncccc23)C[C@H](CN2CCN(c3cc4c(cn3)CCN[C@H]4C)CC2)O1 (single isomer, unassigned) [Example 75] | 68
C[C@@H]1CN(c2ccc(C#N)c3nccnc23)C[C@H](CN2CCN(c3ccc4c(n3)CN[C@@H]4C)CC2)O1 (single isomer, unassigned) [Example 79] | 108
C[C@@H]1CN(c2ccc(C#N)c3nccnc23)C[C@H](CN2CCN(c3cc4c(cn3)CN[C@@H](C)C4)CC2)O1 (single isomer, unassigned) [Example 84] | 90
C[C@@H]1CN(c2ccc(C#N)c3ncccc23)C[C@H](CN2CC3[C@H](C2)OCCN3c2ccc3c(n2)CCNC3)O1 (stereo in doubt) [Example 53, cis-5-[(2R,6S)-2-methyl-6-[[4-(5,6,7,8-tetrahydro-1,6-naphthyridin-2-yl)-2,3,4a,5,7,7a-hexahydropyrrolo[3,4-b][1,4]oxazin-6-yl]methyl]morpholin-4-yl]quinoline-8-carbonitrile] | 69
C[C@@H]1CN(c2ccc(C#N)c3ncccc23)C[C@H](CN2CCN(c3cccc4c3CNC4)CC2)O1 [Example 2, 5-[(2S,6R)-2-[(4-isoindolin-4-ylpiperazin-1-yl)methyl]-6-methyl-morpholin-4-yl] quinoline-8-carbonitrile] | 58
C[C@@H]1CN(c2ccc(C#N)c3ncccc23)C[C@H](CN2CCN(c3ccc4c(c3)CNC4)[C@@H](CO)C2)O1 [Example 4, 5-[(2S,6R)-2-[[(3R)-3-(hydroxymethyl)-4-isoindolin-5-yl-piperazin-1-yl]methyl]-6-methyl-morpholin-4-yl]quinoline-8-carbonitrile] | 148
C[C@@H]1CN(c2ccc(C#N)c3ncccc23)C[C@H](CN2CCN(c3ccc4c(c3)CCNC4)CC2)O1 [Example 5, 5-[(2R,6S)-2-methyl-6-[[4-(1,2,3,4-tetrahydroisoquinolin-6-yl)piperazin-1-yl]methyl]morpholin-4-yl]quinoline-8-carbonitrile] | 64
C[C@@H]1CN(c2ccc(C#N)c3ncsc23)C[C@H](CN2CCN(c3cnc4c(c3)CNC4)CC2)O1 [Example 8, 7-[(2S,6R)-2-[[4-(6,7-dihydro-5H-pyrrolo[3,4-b]pyridin-3-yl)piperazin-1-yl]methyl]-6-methyl-morpholin-4-yl]-1,3-benzothiazole-4-carbonitrile] | 48
C[C@@H]1CN(c2ccc(C#N)c3ncccc23)C[C@H](CN2CCN(c3ncc4c(n3)CNC4)CC2)O1 [Example 11, 5-[(2S,6R)-2-[[4-(6,7-dihydro-5Hpyrrolo[3,4-d]pyrimidin-2-yl)piperazin-1-yl]methyl]-6-methyl-morpholin-4-yl]quinoline-8-carbonitrile] | 252
C[C@@H]1CN(c2ccc(C#N)c3ncccc23)C[C@H](CN2CCN(c3ncc4c(n3)CNCC4)CC2)O1 [Example 12, 5-[(2R,6S)-2-methyl-6-[[4-(5,6,7,8-tetrahydropyrido[3,4-d]pyrimidin-2-yl)piperazin-1-yl]methyl]morpholin-4-yl]quinoline-8-carbonitrile] | 143
C[C@@H]1CN(c2ccc(C#N)c3ncccc23)C[C@H](CN2CCN(c3ccc4c(n3)CCNC4)CC2)O1 [Example 14, 5-[(2R,6S)-2-methyl-6-[[4-(5,6,7,8-tetrahydro-1,6-naphthyridin-2-yl)piperazin-1-yl]methyl]morpholin-4-yl]quinoline-8-carbonitrile] | 58
C[C@@H]1CN(c2ccc(C#N)c3ncccc23)C[C@H](CN2CCN(c3ccc4c(c3)CNC4)CC2CO)O1 (stereo partly drawn) [Example 15, 5-[(2S,6R)-2-[[2-(hydroxymethyl)-4-isoindolin-5-yl-piperazin-1-yl]methyl]-6-methyl-morpholin-4-yl]quinoline-8-carbonitrile] | 97
C[C@@H]1CN(c2ccc(C#N)c3ncccc23)C[C@H](CN2CCN(c3ccc4c(c3)CN(CCO)C4)CC2)O1 [Example 16, 5-[(2S,6R)-2-[[4-[2-(2-hydroxyethyl)isoindolin-5-yl]piperazin-1-yl]methyl]-6-methyl-morpholin-4-yl]quinoline-8-carbonitrile] | 91
C[C@@H]1CN(c2ccc(C#N)c3ncccc23)C[C@H](CN2CCN(c3cnc4c(n3)CCNC4)CC2)O1 [Example 17, 5-[(2R,6S)-2-methyl-6-[[4-(5,6,7,8-tetrahydropyrido[3,4-b]pyrazin-2-yl)piperazin-1-yl]methyl]morpholin-4-yl]quinoline-8-carbonitrile] | 98
C[C@@H]1CN(c2ccc(C#N)c3ncccc23)C[C@H](CN2CCN(c3cc4c(cn3)CNC4)CC2)O1 [Example 18, 5-[(2S,6R)-2-[[4-(2,3-dihydro-1H-pyrrolo[3,4-c]pyridin-6-yl)piperazin-1-yl]methyl]-6-methyl-morpholin-4-yl] quinoline-8-carbonitrile] | 98
